Data reported in patent publication US4866039A, “Peptides containing the 18 to 23 residues of vasoactive intestinal peptide, and analogues” (Beecham Group p.l.c., priority 1985, dated 1989).
Residues, ends and D or L forms follow the SMILES beside them.

Test system: rat proximal duodenum
Assay: acid disposal capacity of the rat proximal duodenum (anti-ulcer activity)
Type: in vivo
Details: anaesthetized male Wistar rats; input pH 2.5, second pass; 150nmol/kg/h i.v. infusion; significance P<0.05
Protocol: Method for estimating the acid disposal capacity of the rat proximal duodenum
Male Wistar rats, 180-250g bodyweight, fasted overnight, are anaesthetized with urethane (150mg/100g bodyweight i.m.). The trachea is cannulated, and a gastric cannula, 0.5cm i.d., 3cm long, is inserted into the non-glandular forestomach via a mid-line abdominal incision. The intragastric cannula is exteriorized via a stab wound in the body wall. A triple lumen catheter, 0.3cm o.d., is passed via the gastric cannula through the pylorus. The duodenum is ligated 1cm below the pylorus, and the pylorus ligated around the cannula, thus creating a 1cm proximal duodenal pouch excluding pancreatic and biliary secretions. The two ligatures enclosing the duodenal pouch are placed so as to avoid occluding the blood supply to the duodenal segment. Gastric secretions are allowed to drain freely from the gastric cannula. Compounds are administered dissolved in 0.9% sodium chloride (saline) as a 1.2 ml/h infusion via a catheter inserted in a jugular vein.
The triple lumen catheter is connected as follows. […]
Lumen 2 collects the perfusate and delivers it to a flow cell containing a pH microelectrode. Outflow pH is recorded throughout the experiment. […]
A group size of 6 animals or larger is used and the effect of compounds on the output pH compared to control data determined. […]

CC(C)C[C@H](NC(=O)[C@H](Cc1ccc(O)cc1)NC(=O)[C@H](CCCCN)NC(=O)[C@H](CCCCN)NC(=O)[C@@H](NC(=O)[C@H](C)N)C(C)C)C(N)=O [Example 1, H-Ala-Val-Lys-Lys-Tyr-Leu-NH2] (H-AVKKYL-NH2) was tested, and the “acid disposal (output pH compared to control)” value was “significant increase in acid disposal”.
